# In US20170066795A1, “SOLID PRODRUG FORMS OF 2'-CHLORO-2'-METHYL URIDINE FOR HCV” (IDENIX PHARMACEUTICALS LLC, priority 2014, published 2017):
# Like-named read-outs stand apart in the source and are kept apart here.
# What was measured:
# [1] = Example 4 Group A: safety (adverse events) in healthy volunteers; assay type: in vivo, human
# Description: Six sequential cohorts of 8 health volunteers per cohort were randomized via a computer-generated randomization list in the ratio of 2:6. Two of the healthy volunteers (HV) received placebo and the remaining six received Compound I under fasted conditions at single ascending doses of 10, 25, 50, 150, or 300 mg, or multiple doses at 300 mg QD for 7 days (below, “Group A”).
# (§1) For Groups A and B, dosing occurred between approximately 08:00 AM and 10:00 AM on each dosing day. Dosing was fasted for all subjects in Groups A and B. For fasted dosing, subjects observed a fasting period of approximately 10 hours prior to each dose and for an additional 4 hours post-dose.
# Safety measurements included clinical history, routine laboratory evaluation, physical examination, 12-lead ECG, vital signs, adverse event (AE) assessment.
# [2] = Example 4 Group B: plasma pharmacokinetics in genotype 1 HCV-infected subjects (LC/MS/MS); conditions: human, in vivo, fasted; for AUC(0-inf) / Cmax / half-life: mean ± SD; for AUC(0-inf): read-out: AUC∞ of Compound I; for Cmax: read-out: Cmax of Compound I; for half-life: read-out: t1/2 of Compound I (converted); for Tmax: median, read-out: Tmax of Compound I
# Description: Five sequential cohorts of 3 HCV-infected subjects (HCV) per cohort received under fasted conditions open-label Compound I at single ascending doses of 10, 25, 50, 150, and 300 mg (below, “Group B”).
# Compound I was provided as size 0, white, hard hydroxypropyl methylcellulose (HPMC) capsules for oral administration at 5 mg, 25 mg, and 50 mg strengths. The same powder blend containing 33.3% weight/weight (w/w) Compound I, a diluent, and a disintegrant is used to fill the capsules for all dose strengths. Matching placebo capsules will also be provided. Storage conditions will be provided on the study drug container label.
# as §1
# Plasma samples were obtained up to 120 hours after dosing and the levels of Compound I and its Nucleoside metabolite were measured by using validated LC/MS/MS methodology. Plasma pharmacokinetic parameters were obtained by using non-compartmental analysis with parameters reported as mean±standard deviation (SD) except for Tmax where median (min-max) is shown.
structure (smiles),measurement,setting,value
CC(C)OC(=O)[C@@H](C)N[P@@](=O)(OC[C@H]1O[C@@H](n2ccc(=O)[nH]c2=O)[C@](C)(Cl)[C@@H]1O)Oc1ccccc1 [Compound I],Adverse event: Abdominal discomfort,[1]; 10 mg single dose (n = 6),"0 n, %"
same,Adverse event: Abnormal feces,[1]; 10 mg single dose (n = 6),"0 n, %"
same,Adverse event: Constipation,[1]; 10 mg single dose (n = 6),"0 n, %"
same,Adverse event: Dizziness,[1]; 10 mg single dose (n = 6),"0 n, %"
same,Adverse event: Dry mouth,[1]; 10 mg single dose (n = 6),"0 n, %"
same,Adverse event: Dry skin,[1]; 10 mg single dose (n = 6),"0 n, %"
same,Adverse event: Erythema,[1]; 10 mg single dose (n = 6),"0 n, %"
same,Adverse event: Flushing,[1]; 10 mg single dose (n = 6),"0 n, %"
same,Adverse event: Headache,[1]; 10 mg single dose (n = 6),"0 n, %"
same,Adverse event: Menstruation delayed,[1]; 10 mg single dose (n = 6),"0 n, %"
same,Adverse event: Musculoskeletal stiffness,[1]; 10 mg single dose (n = 6),"0 n, %"
same,Adverse event: Nausea,[1]; 10 mg single dose (n = 6),"0 n, %"
same,Adverse event: Palpitations,[1]; 10 mg single dose (n = 6),"0 n, %"
same,Adverse event: Pancreatic enzymes increased,[1]; 10 mg single dose (n = 6),"0 n, %"
same,Adverse event: Procedural nausea,[1]; 10 mg single dose (n = 6),"0 n, %"
same,Adverse event: Vessel puncture site bruise,[1]; 10 mg single dose (n = 6),"0 n, %"
same,Adverse event: Vessel puncture site pain,[1]; 10 mg single dose (n = 6),"0 n, %"
same,Adverse event: Vomiting,[1]; 10 mg single dose (n = 6),"0 n, %"
same,Subjects with AE,[1]; 10 mg single dose (n = 6),"0 n, %"
same,Adverse event: Abdominal discomfort,[1]; 25 mg single dose (n = 6),"0 n, %"
same,Adverse event: Abnormal feces,[1]; 25 mg single dose (n = 6),"0 n, %"
same,Adverse event: Constipation,[1]; 25 mg single dose (n = 6),"0 n, %"
same,Adverse event: Dizziness,[1]; 25 mg single dose (n = 6),"0 n, %"
same,Adverse event: Dry mouth,[1]; 25 mg single dose (n = 6),"0 n, %"
same,Adverse event: Dry skin,[1]; 25 mg single dose (n = 6),"0 n, %"
same,Adverse event: Erythema,[1]; 25 mg single dose (n = 6),"0 n, %"
same,Adverse event: Flushing,[1]; 25 mg single dose (n = 6),"0 n, %"
same,Adverse event: Headache,[1]; 25 mg single dose (n = 6),"0 n, %"
same,Adverse event: Menstruation delayed,[1]; 25 mg single dose (n = 6),"0 n, %"
same,Adverse event: Musculoskeletal stiffness,[1]; 25 mg single dose (n = 6),"0 n, %"
same,Adverse event: Nausea,[1]; 25 mg single dose (n = 6),"0 n, %"
same,Adverse event: Palpitations,[1]; 25 mg single dose (n = 6),"0 n, %"
same,Adverse event: Pancreatic enzymes increased,[1]; 25 mg single dose (n = 6),"1 (16.7) n, %"
same,Adverse event: Procedural nausea,[1]; 25 mg single dose (n = 6),"1 (16.7) n, %"
same,Adverse event: Vessel puncture site bruise,[1]; 25 mg single dose (n = 6),"0 n, %"
same,Adverse event: Vessel puncture site pain,[1]; 25 mg single dose (n = 6),"0 n, %"
same,Adverse event: Vomiting,[1]; 25 mg single dose (n = 6),"0 n, %"
same,Subjects with AE,[1]; 25 mg single dose (n = 6),"2 (33.3) n, %"
same,Adverse event: Abdominal discomfort,[1]; 50 mg single dose (n = 6),"1 (16.7) n, %"
same,Adverse event: Abnormal feces,[1]; 50 mg single dose (n = 6),"0 n, %"
same,Adverse event: Constipation,[1]; 50 mg single dose (n = 6),"0 n, %"
same,Adverse event: Dizziness,[1]; 50 mg single dose (n = 6),"1 (16.7) n, %"
same,Adverse event: Dry mouth,[1]; 50 mg single dose (n = 6),"0 n, %"
same,Adverse event: Dry skin,[1]; 50 mg single dose (n = 6),"0 n, %"
same,Adverse event: Erythema,[1]; 50 mg single dose (n = 6),"0 n, %"
same,Adverse event: Flushing,[1]; 50 mg single dose (n = 6),"0 n, %"
same,Adverse event: Headache,[1]; 50 mg single dose (n = 6),"1 (16.7) n, %"
same,Adverse event: Menstruation delayed,[1]; 50 mg single dose (n = 6),"0 n, %"
same,Adverse event: Musculoskeletal stiffness,[1]; 50 mg single dose (n = 6),"0 n, %"
same,Adverse event: Nausea,[1]; 50 mg single dose (n = 6),"0 n, %"
same,Adverse event: Palpitations,[1]; 50 mg single dose (n = 6),"0 n, %"
same,Adverse event: Pancreatic enzymes increased,[1]; 50 mg single dose (n = 6),"0 n, %"
same,Adverse event: Procedural nausea,[1]; 50 mg single dose (n = 6),"0 n, %"
same,Adverse event: Vessel puncture site bruise,[1]; 50 mg single dose (n = 6),"0 n, %"
same,Adverse event: Vessel puncture site pain,[1]; 50 mg single dose (n = 6),"0 n, %"
same,Adverse event: Vomiting,[1]; 50 mg single dose (n = 6),"0 n, %"
same,Subjects with AE,[1]; 50 mg single dose (n = 6),"2 (33.3) n, %"
same,Adverse event: Abdominal discomfort,[1]; 150 mg (n = 6),"1 (16.7) n, %"
same,Adverse event: Abnormal feces,[1]; 150 mg (n = 6),"2 (33.3) n, %"
same,Adverse event: Constipation,[1]; 150 mg (n = 6),"0 n, %"
same,Adverse event: Dizziness,[1]; 150 mg (n = 6),"2 (33.3) n, %"
same,Adverse event: Dry mouth,[1]; 150 mg (n = 6),"1 (16.7) n, %"
same,Adverse event: Dry skin,[1]; 150 mg (n = 6),"0 n, %"
same,Adverse event: Erythema,[1]; 150 mg (n = 6),"1 (16.7) n, %"
same,Adverse event: Flushing,[1]; 150 mg (n = 6),"1 (16.7) n, %"
same,Adverse event: Headache,[1]; 150 mg (n = 6),"1 (16.7) n, %"
same,Adverse event: Menstruation delayed,[1]; 150 mg (n = 6),"0 n, %"
same,Adverse event: Musculoskeletal stiffness,[1]; 150 mg (n = 6),"0 n, %"
same,Adverse event: Palpitations,[1]; 150 mg (n = 6),"0 n, %"
same,Adverse event: Pancreatic enzymes increased,[1]; 150 mg (n = 6),"0 n, %"
same,Adverse event: Procedural nausea,[1]; 150 mg (n = 6),"0 n, %"
same,Adverse event: Vessel puncture site bruise,[1]; 150 mg (n = 6),"0 n, %"
same,Adverse event: Vessel puncture site pain,[1]; 150 mg (n = 6),"0 n, %"
same,Adverse event: Vomiting,[1]; 150 mg (n = 6),"1 (16.7) n, %"
same,Subjects with AE,[1]; 150 mg (n = 6),"4 (66.7) n, %"
same,Adverse event: Abdominal discomfort,[1]; 300 mg QD x 7 days (n = 6),"0 n, %"
same,Adverse event: Abnormal feces,[1]; 300 mg QD x 7 days (n = 6),"0 n, %"
same,Adverse event: Constipation,[1]; 300 mg QD x 7 days (n = 6),"0 n, %"
same,Adverse event: Dizziness,[1]; 300 mg QD x 7 days (n = 6),"0 n, %"
same,Adverse event: Dry mouth,[1]; 300 mg QD x 7 days (n = 6),"0 n, %"
same,Adverse event: Dry skin,[1]; 300 mg QD x 7 days (n = 6),"0 n, %"
same,Adverse event: Erythema,[1]; 300 mg QD x 7 days (n = 6),"0 n, %"
same,Adverse event: Flushing,[1]; 300 mg QD x 7 days (n = 6),"0 n, %"
same,Adverse event: Headache,[1]; 300 mg QD x 7 days (n = 6),"0 n, %"
same,Adverse event: Menstruation delayed,[1]; 300 mg QD x 7 days (n = 6),"1 (16.7) n, %"
same,Adverse event: Musculoskeletal stiffness,[1]; 300 mg QD x 7 days (n = 6),"0 n, %"
same,Adverse event: Nausea,[1]; 300 mg QD x 7 days (n = 6),"0 n, %"
same,Adverse event: Palpitations,[1]; 300 mg QD x 7 days (n = 6),"1 (16.7) n, %"
same,Adverse event: Pancreatic enzymes increased,[1]; 300 mg QD x 7 days (n = 6),"0 n, %"
same,Adverse event: Procedural nausea,[1]; 300 mg QD x 7 days (n = 6),"0 n, %"
same,Adverse event: Vessel puncture site bruise,[1]; 300 mg QD x 7 days (n = 6),"1 (16.7) n, %"
same,Adverse event: Vessel puncture site pain,[1]; 300 mg QD x 7 days (n = 6),"0 n, %"
same,Adverse event: Vomiting,[1]; 300 mg QD x 7 days (n = 6),"0 n, %"
same,Subjects with AE,[1]; 300 mg QD x 7 days (n = 6),"2 (33.3) n, %"
same,Adverse event: Abdominal discomfort,[1]; 300 mg single dose (n = 6),"0 n, %"
same,Adverse event: Abnormal feces,[1]; 300 mg single dose (n = 6),"0 n, %"
same,Adverse event: Constipation,[1]; 300 mg single dose (n = 6),"0 n, %"
same,Adverse event: Dizziness,[1]; 300 mg single dose (n = 6),"1 (16.7) n, %"
same,Adverse event: Dry mouth,[1]; 300 mg single dose (n = 6),"0 n, %"
same,Adverse event: Dry skin,[1]; 300 mg single dose (n = 6),"0 n, %"
same,Adverse event: Erythema,[1]; 300 mg single dose (n = 6),"0 n, %"
same,Adverse event: Flushing,[1]; 300 mg single dose (n = 6),"0 n, %"
same,Adverse event: Headache,[1]; 300 mg single dose (n = 6),"1 (16.7) n, %"
same,Adverse event: Menstruation delayed,[1]; 300 mg single dose (n = 6),"0 n, %"
same,Adverse event: Musculoskeletal stiffness,[1]; 300 mg single dose (n = 6),"1 (16.7) n, %"
same,Adverse event: Nausea,[1]; 300 mg single dose (n = 6),"1 (16.7) n, %"
same,Adverse event: Palpitations,[1]; 300 mg single dose (n = 6),"0 n, %"
same,Adverse event: Pancreatic enzymes increased,[1]; 300 mg single dose (n = 6),"0 n, %"
same,Adverse event: Procedural nausea,[1]; 300 mg single dose (n = 6),"0 n, %"
same,Adverse event: Vessel puncture site bruise,[1]; 300 mg single dose (n = 6),"1 (16.7) n, %"
same,Adverse event: Vessel puncture site pain,[1]; 300 mg single dose (n = 6),"0 n, %"
same,Adverse event: Vomiting,[1]; 300 mg single dose (n = 6),"0 n, %"
same,Subjects with AE,[1]; 300 mg single dose (n = 6),"3 (50.0) n, %"
same,AUC(0-inf),[2]; 10 mg single dose,40 ± 12.6 ng·h/mL
same,Cmax,[2]; 10 mg single dose,26.1 ± 11.9 ng/mL
same,half-life,[2]; 10 mg single dose,1.47 ± 0.7 h
same,Tmax,[2]; 10 mg single dose,0.5 h
same,AUC(0-inf),[2]; 25 mg single dose,140 ± 68.8 ng·h/mL
same,Cmax,[2]; 25 mg single dose,68.4 ± 18.7 ng/mL
same,half-life,[2]; 25 mg single dose,0.97 ± 0.29 h
same,Tmax,[2]; 25 mg single dose,1 h
same,AUC(0-inf),[2]; 50 mg single dose,197 ± 40.1 ng·h/mL
same,Cmax,[2]; 50 mg single dose,91.9 ± 10.7 ng/mL
same,half-life,[2]; 50 mg single dose,1.19 ± 0.46 h
same,Tmax,[2]; 50 mg single dose,1 h
same,AUC(0-inf),[2]; 150 mg single dose,664 ± 160 ng·h/mL
same,Cmax,[2]; 150 mg single dose,297 ± 34 ng/mL
same,half-life,[2]; 150 mg single dose,1.13 ± 0.29 h
same,Tmax,[2]; 150 mg single dose,0.5 h
same,AUC(0-inf),[2]; 300 mg single dose,818 ± 256 ng·h/mL
same,Cmax,[2]; 300 mg single dose,367 ± 537 ng/mL
same,half-life,[2]; 300 mg single dose,1.58 ± 0.02 h
same,Tmax,[2]; 300 mg single dose,1 h
